Assay results published in patent USRE48267E1, “Variants of C-type natriuretic peptide” (priority 2009, dated 2020).
Where a SMILES comes first, the peptide text is derived from it. Bridges are numbered along the chain shown (N, C = ends). The star is where a group is joined. MeO(CH2CH2O)23CH2CH2CO = COCCOCCOCCOCCOCCOCCOCCOCCOCCOCCOCCOCCOCCOCCOCCOCCOCCOCCOCCOCCOCCOCCOCCOCCC(=O)*

How the values were obtained:
[1] = system: wild-type mouse femurs and tibias; experiment: mouse organ culture model of endochondral bone growth, wild-type bones; conditions: for longitudinal growth of wild-type mouse femur ex vivo: 8 days
Protocol: To determine the efficacy of CNP variants in stimulating longitudinal bone growth, CNP variants were tested in a mouse organ culture model of endochondral bone growth in wild-type mice and transgenic mice having a G380R mutation in the human FGFR-3 gene (FGFR3^wt/Ach heterozygote) which represent a mouse model of mild achondroplasia. In brief, the pharmacological activity of wild-type CNP22 and CNP variants was compared in an organ culture model of embryonic or neonatal mouse tibiae, isolated from wild-type and FGFR3^wt/Ach littermates. Overall bone growth and histological changes within the growth plate were assessed. Conditioned culture medium is also assessed for biomarkers of intracellular signaling (cGMP), cartilage metabolism (type II collagen, other collagens, aggrecan chondroitin sulfate), bone metabolism (bone alkaline phosphatase, osteocalcin, type I collagen [C-telopeptide, N-telopeptide]), and inflammation (interleukin-1, interleukin 6, interleukin-11).
The efficacy of wtCNP22, CNP37 and PEO24-[…]22(K4R) (SEQ ID NO: 36) in stimulating longitudinal femoral growth was evaluated in the mouse organ culture model. For these experiments femora were isolated from 2-3 day old wild-type mice and cultured in alphaMEM supplemented with 0.2% BSA, 0.5 mM L-glutamine, 40 units penicillin/mL and 40 ug streptomycin/mL, for 8 days in the presence of vehicle, CNP22 or CNP variants. The treatment commenced at day 0 and was repeated every two days thereafter, as the medium was changed. Bones were measured prior to treatment and every two days thereafter, using a dissection microscope fitted with a 1 cm eye-piece reticule. Conditioned medium was used for biomarker analysis. At day 8 bones were fixed in 4% paraformaldehyde for 24 hr, decalcified in 5% formic acid for 24 hrs, dehydrated and embedded in paraffin. Bones were sectioned at 5 um (microns), which were then deparaffinized, rehydrated, and stained with Alcian Blue for 30 min (pH 2.5; MasterTech). Alcian Blue stains cartilage blue. Stained sections were visualized and photographed by brightfield microscopy. The thickness of the hypertrophic region of the growth plate cartilage was determined by image analysis.
In addition to the distribution of CNP variants in the bone growth plate, the ex vivo effects of CNP37, CNP22 and vehicle on cells in the FGFR3^ach and wild-type growth plate, e.g., hypertrophic cell size and cellularity of proliferating zone, were also evaluated. Bone samples were prepared, including Alcian Blue staining, as described above. Images of the entire proximal growth plate were taken at 4× magnitude. The growth plate is divided into three zones, starting from the epiphyseal side of cartilage: the resting zone (individual small chondrocytes), proliferating zone (columns of stacked chondrocytes parallel to the long axis of the bone), and hypertrophic zone (large chondrocytes and thin septa between the chondrocytes). In these regions, measurements were made by ImageJ software, including the number of proliferating chondrocytes per column and the density of hypertrophic chondrocytes. […] The cell size of hypertrophic chondrocytes was calculated by 1 over determined cell density. […]
Femurs and tibias were isolated from wild-type and FGFR3^ach mice as described above. […] On the eighth day, media was collected and analyzed for the biomarkers cGMP (cyclic guanosine 3′, 5′ cyclic monophosphate) and fragments of cleaved collagen type II, a cartilage-specific marker for cartilage turnover. […]

cGMP = experiment: plasma cGMP concentration in rats; type: in vivo, rat
Protocol: Recombinant wild-type CNP22, CNP37 and PEO24-GANRR-CNP22 (K4R) (SEQ ID NO: 36) were evaluated.
Plasma cGMP concentrations in the sample at 5, 30, 60 and 90 minutes after i.v. dosing, or at 5, 30, 60, 120 and 180 minutes after s.c. dosing, were determined by the competitive RIA using anti-cGMP monoclonal antibody. Standard samples were prepared. 100 uL of the assay samples (standard solutions for the calibration curve or the diluted plasma samples for cGMP determination) were transferred to test tubes. Then 100 uL of anti-cGMP monoclonal antibody solution and 100 uL of ^125I-labeled succinyl cGMP tyrosine methyl ester solution were added to the tubes, respectively. All tubes were kept at 4° C. overnight. After the addition of 500 uL dextran charcoal solution, the tubes were vortexed and then placed on ice for 10 minutes. The reaction mixture was centrifuged and 500 uL of the supernatant was transferred from each sample to a new test tube. The amount of radiation (gamma line) in the supernatant was measured by a gamma-counter.

SMILES: CC[C@H](C)[C@@H]1NC(=O)[C@H](CCCNC(=N)N)NC(=O)[C@H](CC(=O)O)NC(=O)[C@H](CC(C)C)NC(=O)[C@H](CCCCN)NC(=O)[C@H](CC(C)C)NC(=O)CNC(=O)[C@H](Cc2ccccc2)NC(=O)[C@@H](NC(=O)CNC(=O)[C@H](CCCNC(=N)N)NC(=O)[C@H](CO)NC(=O)[C@H](CC(C)C)NC(=O)CNC(=O)[C@H](CCCNC(=N)N)NC(=O)[C@H](CCCNC(=N)N)NC(=O)[C@H](CC(N)=O)NC(=O)[C@H](C)NC(=O)CNC(=O)CCOCCOCCOCCOCCOCCOCCOCCOCCOCCOCCOCCOCCOCCOCCOCCOCCOCCOCCOCCOCCOCCOCCOCCOC)CSSC[C@@H](C(=O)O)NC(=O)CNC(=O)[C@H](CC(C)C)NC(=O)CNC(=O)[C@H](CO)NC(=O)[C@H](CCSC)NC(=O)[C@H](CO)NC(=O)CNC1=O [PEO24-GANRR-CNP22(K4R)] ({MeO(CH2CH2O)23CH2CH2CO}-GANRRGLSRGCFGLKLDRIGSMSGLGC-OH; disulfide 11-27)
- cGMP levels in conditioned media ([1]; ex-planted wild-type mouse femurs and tibias, day 8): large increase (p<0.01)
- longitudinal growth of wild-type mouse tibia ex vivo ([1]; treated every two days): increased the longitudinal growth of the tibia compared to vehicle or CNP22
- longitudinal growth of wild-type mouse femur ex vivo ([1]; treated every two days): the most effective
- longitudinal growth of wild-type mouse femur ex vivo ([1]; treated every two days, listed as PE024-GANRR-CNP22(K4R)): stimulated the growth of wild-type mouse femur
- levels of cleaved collagen type II in conditioned media ([1]; wild-type mouse femurs): increased
- plasma levels of cGMP compared with CNP22 (cGMP; i.v. 20 nmol/kg, at 30, 60 and 90 minutes): much higher plasma levels of cGMP
- plasma concentrations of cGMP compared with CNP22 (cGMP; s.c. 50 nmol/kg): substantially higher plasma concentrations of cGMP
